Experimental data taken from ChEMBL document CHEMBL1275371, “Synthesis, biological evaluation, and molecular docking studies of 2-chloropyridine derivatives possessing 1,3,4-oxadiazole moiety as potential antitumor agents” (Bioorg Med Chem, 2010).
In brackets after ≈: the same amount, converted by molar mass.

system: SGC-7901; assay: Antiproliferative activity against human SGC7901 cells after 48 hrs by MTT assay; format: functional, cell-based; conditions: SGC-7901, 48 h

Row | SMILES | IC50
1 | Clc1ccc(CSc2nnc(-c3ccccn3)o2)cn1 | 12.6 µg/mL (≈ 41.3 µM)
2 | Clc1ccc(CSc2nnc(-c3ccco3)o2)cn1 | 14.3 µg/mL (≈ 48.7 µM)
3 | Clc1ccc(CSc2nnc(-c3cccs3)o2)cn1 | 15.1 µg/mL (≈ 48.7 µM)
4 | Clc1ccc(CSc2nnc(-c3cccc4ccccc34)o2)cn1 | 2.56 µg/mL (≈ 7.24 µM)
5 | Cc1ccccc1-c1nnc(SCc2ccc(Cl)nc2)o1 | 8.51 µg/mL (≈ 26.8 µM)
6 | Cc1ccc(-c2nnc(SCc3ccc(Cl)nc3)o2)cc1 | 3.62 µg/mL (≈ 11.4 µM)
7 | COc1ccccc1-c1nnc(SCc2ccc(Cl)nc2)o1 | 8.2 µg/mL (≈ 24.6 µM)
8 | COc1ccc(-c2nnc(SCc3ccc(Cl)nc3)o2)cc1 | 3.5 µg/mL (≈ 10.5 µM)
9 | CCOc1ccccc1-c1nnc(SCc2ccc(Cl)nc2)o1 | 10.3 µg/mL (≈ 29.6 µM)
10 | CCOc1ccc(-c2nnc(SCc3ccc(Cl)nc3)o2)cc1 | 4.97 µg/mL (≈ 14.3 µM)
11 | Fc1ccccc1-c1nnc(SCc2ccc(Cl)nc2)o1 | 9.12 µg/mL (≈ 28.3 µM)
12 | Fc1ccc(-c2nnc(SCc3ccc(Cl)nc3)o2)cc1 | 3.67 µg/mL (≈ 11.4 µM)
13 | Clc1ccc(CSc2nnc(-c3ccccc3Cl)o2)cn1 | 13.4 µg/mL (≈ 39.8 µM)
14 | Clc1ccc(-c2nnc(SCc3ccc(Cl)nc3)o2)cc1 | 8.62 µg/mL (≈ 25.5 µM)
15 | Oc1ccc(-c2nnc(SCc3ccc(Cl)nc3)o2)cc1 | > 20 µg/mL
16 | CC(C)c1ccc(-c2nnc(SCc3ccc(Cl)nc3)o2)cc1 | 4.32 µg/mL (≈ 12.5 µM)
17 | Nc1ccc(-c2nnc(SCc3ccc(Cl)nc3)o2)cc1 | 8.48 µg/mL (≈ 26.6 µM)
18 | CN(C)c1ccc(-c2nnc(SCc3ccc(Cl)nc3)o2)cc1 | 8.9 µg/mL (≈ 25.7 µM)
19 | COc1ccc(-c2nnc(SCc3ccc(Cl)nc3)o2)c(O)c1 | 1.61 µg/mL (≈ 4.6 µM)
20 | COc1ccc(-c2nnc(SCc3ccc(Cl)nc3)o2)cc1OC | 4.48 µg/mL (≈ 12.3 µM)
21 | COc1cc(-c2nnc(SCc3ccc(Cl)nc3)o2)cc(OC)c1OC | 10.2 µg/mL (≈ 25.9 µM)
22 | O=c1[nH]cc(F)c(=O)[nH]1 [FLUOROURACIL] | 7.36 µg/mL (≈ 56.6 µM)

biological target: Telomerase reverse transcriptase (Homo sapiens, UniProt O14746); assay: Inhibition of telomerase in human SGC7901 cells by TRAP assay; format: cell-based, SGC-7901; conditions: not given
Sequence (O14746 whole entry): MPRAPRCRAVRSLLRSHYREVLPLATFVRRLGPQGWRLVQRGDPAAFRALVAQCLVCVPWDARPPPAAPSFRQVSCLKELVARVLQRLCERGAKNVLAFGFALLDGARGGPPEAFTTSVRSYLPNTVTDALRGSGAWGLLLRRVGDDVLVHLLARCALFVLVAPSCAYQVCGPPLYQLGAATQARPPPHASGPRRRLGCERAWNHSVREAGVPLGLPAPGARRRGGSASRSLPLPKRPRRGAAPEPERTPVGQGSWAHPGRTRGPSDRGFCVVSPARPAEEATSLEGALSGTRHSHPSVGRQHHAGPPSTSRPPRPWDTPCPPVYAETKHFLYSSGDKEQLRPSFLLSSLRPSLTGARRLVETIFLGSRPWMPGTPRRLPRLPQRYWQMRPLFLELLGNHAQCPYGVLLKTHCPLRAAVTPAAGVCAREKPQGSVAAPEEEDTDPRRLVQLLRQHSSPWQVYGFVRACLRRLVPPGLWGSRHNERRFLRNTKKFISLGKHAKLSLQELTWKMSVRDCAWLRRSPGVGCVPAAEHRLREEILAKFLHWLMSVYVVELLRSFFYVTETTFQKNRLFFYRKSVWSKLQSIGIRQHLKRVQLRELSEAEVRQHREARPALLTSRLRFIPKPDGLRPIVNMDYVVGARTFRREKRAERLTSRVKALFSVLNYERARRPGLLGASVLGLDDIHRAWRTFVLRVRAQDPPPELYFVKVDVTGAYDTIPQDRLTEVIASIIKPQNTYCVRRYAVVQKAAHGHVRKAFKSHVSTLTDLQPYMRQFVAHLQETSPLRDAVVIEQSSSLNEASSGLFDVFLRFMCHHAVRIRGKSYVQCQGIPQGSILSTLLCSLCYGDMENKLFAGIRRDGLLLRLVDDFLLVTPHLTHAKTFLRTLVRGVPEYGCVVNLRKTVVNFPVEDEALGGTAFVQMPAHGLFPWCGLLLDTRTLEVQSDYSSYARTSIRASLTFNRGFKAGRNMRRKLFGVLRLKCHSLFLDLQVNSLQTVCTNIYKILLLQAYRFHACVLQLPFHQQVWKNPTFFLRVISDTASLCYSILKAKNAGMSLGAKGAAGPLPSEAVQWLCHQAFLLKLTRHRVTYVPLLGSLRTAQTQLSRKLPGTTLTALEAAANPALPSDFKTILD

Row | SMILES | IC50
23 | Clc1ccc(CSc2nnc(-c3cccc4ccccc34)o2)cn1 | 4.2 µM
24 | COc1ccc(-c2nnc(SCc3ccc(Cl)nc3)o2)c(O)c1 | 2.3 µM
